{"source": "patent US20190169564A1", "about": "“METHODS OF CULTURING MICROORGANISMS IN NON-AXENIC MIXOTROPHIC CONDITIONS” (HELIAE DEVELOPMENT, LLC, priority 2012, published 2019)", "key": {"Chlorella": {"tested_on": "Chlorella", "assay": "Mixotrophic Chlorella culture in bubbled column reactor with pH-auxostat, comparison of organic carbon sources"}, "Chlorella sp. SNL333": {"tested_on": "Chlorella sp. SNL333", "assay": "Yield of raceway pond mixotrophic Chlorella culture after contamination treatment", "format": "cell-based", "procedure": "Chlorella sp. SNL333 was grown in a mixotrophic system in the pond raceway systems described above in Example 4. The area of the raceway photobioreactor was 5.6 m^2 with an operating volume of 568 L at a depth of 15 cm. One unit was mixed with a pump (Reactor 1), and the other via a paddle wheel (Reactor 2). Air was delivered to the paddle wheel system via an air stone. Air was delivered to the pumped reactor via a venturi injection system. Eductors were used in the pumped reactor to increase water velocity and enhance oxygen transfer of the liquid medium. […] The nitrate level in the modified BG-11 recipe consisted of 400 mg/L, and was determined via the nitrate consumption rates from previous trials.\nNitrate levels were adjusted towards the end of the trial to maintain residual nitrate in the system (400 mg/L). Harvests occurred daily throughout the trials. Harvest consisted of 50% of the culture volume daily, with an 80% harvest occurring on day 7. The total trial lasted 12 days for Reactor 1 and 10 days for Reactor 2.\nTreatments to control the bacterial population occurred at the time indicated by the vertical dashed line. Reactor 1 received an ozone treatment, and Reactor 2 received an antibiotic treatment. At 190 hours the make-up water for refilling the system was sterilized by chlorination prior to being added to the culture. […]"}, "contaminating bacteria": {"tested_on": "contaminating bacteria", "assay": "Treatment of bacterial contamination in outdoor raceway pond mixotrophic Chlorella culture (flow cytometry)", "format": "cell-based", "description": "Contamination observation (400×, 1000× oil immersion-phase contrast micrograph and cell cytometry with bacterial dying) was performed every 2 days, including a measurement of bacterial contamination by flow cytometry. For bacterial contamination measurement, to each 1 ml sample, 1 μl BacLight™ Green bacterial stain (Invitrogen, Eugene, Oreg., USA) as added, and samples were incubated at room temperature in the dark for 30 to 60 minutes. After incubation, samples were analyzed on a BD FACSAria™ (BD Biosciences, San Jose, Calif., USA) and populations of bacteria and algae were gated based on BacLight™ fluorescence and chlorophyll autofluoresence.\nChlorella sp. SNL333 was grown in a mixotrophic system in the pond raceway systems described above in Example 4. The area of the raceway photobioreactor was 5.6 m^2 with an operating volume of 568 L at a depth of […]. One unit was mixed with a pump (Reactor 1), and the other via a paddle wheel (Reactor 2). Air was delivered to the paddle wheel system via an air stone. Air was delivered to the pumped reactor via a venturi injection system. […] The nitrate level in the modified BG-11 recipe consisted of 400 mg/L, and was determined via the nitrate consumption rates from previous trials. […]\nReferring to FIG. 28, the percentage of bacteria to Chlorella in the mixotrophic cultures was quantified using the procedure discussed in the previous examples. […]"}}}
{"smiles": "CC(=O)O", "note": "[Acetic Acid, acetic acid]", "values": [{"measurement": "Mixotrophic Chlorella Daily Productivity", "setting": "Chlorella; Day 1, organic carbon source fed by pH-auxostat, 25° C., 24 hour photoperiod", "value": 1.04, "unit": "g/L day"}, {"measurement": "Mixotrophic Chlorella Daily Productivity", "setting": "Chlorella; Day 2", "value": 1.21, "unit": "g/L day"}, {"measurement": "Mixotrophic Chlorella Daily Productivity", "setting": "Chlorella; Day 3", "value": 1.27, "unit": "g/L day"}, {"measurement": "Mixotrophic Chlorella Daily Productivity", "setting": "Chlorella; Day 4", "value": 1.97, "unit": "g/L day"}, {"measurement": "Mixotrophic Chlorella Daily Productivity", "setting": "Chlorella; Day 5", "value": 1.40, "unit": "g/L day"}]}
{"smiles": "OO", "note": "[H2O2, hydrogen peroxide]", "values": [{"measurement": "effect on growth of bacteria cultures", "setting": "E. coli; 10 mM and 20 mM H2O2, glucose and acetate mediums, 20 mM greater effect than 10 mM", "value": "negatively affected the growth of bacteria cultures in both glucose and acetate mediums"}, {"measurement": "inhibitory effect on growth of the bacteria versus H2O2 concentration", "setting": "E. coli; 1, 2.5 and 5 mM H2O2, one time treatment, glucose and sodium acetate cultures, growth eventually recovers", "value": "inhibitory effect on the growth of the bacteria increased"}]}
{"smiles": "O=[O+][O-]", "note": "[ozone]", "values": [{"measurement": "average yield for the three days after the treatment", "setting": "Chlorella sp. SNL333", "value": 105, "unit": "g/m^2 d"}, {"measurement": "percentage of bacteria to Chlorella after treatment", "setting": "contaminating bacteria; after the treatment (ozone 0.10-0.20 mg/L for 17 h; antibiotic mix of Table 4)", "value": 1.4, "unit": "%"}, {"measurement": "percentage of bacteria to Chlorella before treatment", "setting": "contaminating bacteria; before the treatment", "value": 6.5, "unit": "%"}]}
